Literature values as cited in PubChem BioAssay AID1259409 (Chemical Carcinogenesis Research Information System (CCRIS), 2018).

System: rodent chemically induced tumor inhibition, incidence and multiplicity
Experiment: CCRIS tumor inhibitor studies
Conditions: Dose [Inhibitor]: 0

SMILES: O=c1oc2c(O)c(O)cc3c(=O)oc4c(O)c(O)cc1c4c23
- tumour outcome (control, treated, inhibition, significance) (Carcinogen: 4-(METHYLNITROSOAMINO-1-(PYRIDYL)-1-BUTANONE, 64091-91-4, 4 G/KG DIET BEGINNING 2 WK PRIOR TO CARCINOGEN DOSE (STUDY DURATION: 18 WK), Route [Inhibitor]: ORAL, Species: MOUSE, Strain/Sex: STRAIN-A/FEMALE, Target Tissue: Type of Lesion: LUNG: ADENOMA, Dose [Carcinogen]: 2 MG IN 0.2 ML OF 0.9% NACL ONCE, Promoter: NONE USED): 100%, 100%, 0%, not significant
- tumour outcome (control, treated, inhibition, significance) (Carcinogen: 4-METHYLNITROSOAMINO-1-(PYRIDYL)-1-BUTANONE, 64091-91-4, 4 G/KG DIET BEGINNING 2 WK PRIOR TO CARCINOGEN DOSE AND CONTINUING FOR STUDY DURATION (STUDY DURATION: 18 WK), Route [Inhibitor]: ORAL, Species: MOUSE, Strain/Sex: STRAIN-A/FEMALE, Target Tissue: Type of Lesion: LUNG: ADENOMA, Dose [Carcinogen]: 62.4 UG/ML DRINKING WATER FOR 7 WK (TOTAL DOSE 9.4 MG), Promoter: NONE USED): 100%, 96%, 4%, not calculated
- tumour outcome (control, treated, inhibition, significance) (Carcinogen: 4-NITROQUINOLINE-1-OXIDE, 56-57-5, 400 PPM IN DIET FOR 7 WK BEGINNING 1 WK PRIOR TO START OF CARCINOGEN TREATMENT (STUDY DURATION: 32 WK), Route [Inhibitor]: ORAL, Species: RAT, Strain/Sex: F344/MALE, Target Tissue: Type of Lesion: TONGUE: PAPILLOMA, Dose [Carcinogen]: 20 PPM IN DRINKING WATER FOR 5 WK, Promoter: NONE USED): 1/15 (7%), 0/15 (0%), 100%, not significant
- tumour outcome (control, treated, inhibition, significance) (Carcinogen: 7,12-DIMETHYLBENZ[A]ANTHRACENE, 57-97-6', 1000 PPM IN DIET FOR DURATION OF STUDY BEGINNING CONCURRENTLY WITH CARCINOGEN TREATMENT (STUDY DURATION: 42 WK0, Route [Inhibitor]: ORAL, Species: FISH, Strain/Sex: RAINBOW TROUT/ MALE, FEMALE, Target Tissue: Type of Lesion: LIVER: TUMOR, Dose [Carcinogen]: 750 PPM IN DIET FOR 7 WK, Promoter: NONE USED): 6%, 9%, -50%, not significant
- tumour outcome (control, treated, inhibition, significance) (Carcinogen: 7,12-DIMETHYLBENZ[A]ANTHRACENE, 57-97-6, 5 UMOL IN 0.4 ML ACETONE 20 MIN PRIOR TO EACH PROMOTER DOSE (STUDY DURATION: 47 WK), Route [Inhibitor]: DERMAL, Species: MOUSE, Strain/Sex: CF-1/FEMALE, Target Tissue: Type of Lesion: SKIN: CARCINOMA, Dose [Carcinogen]: 100 NMOL IN 0.2 ML ACETONE ONCE): 67%, 17%, 75%, not calculated
- tumour outcome (control, treated, inhibition, significance) (Carcinogen: 7,12-DIMETHYLBENZ[A]ANTHRACENE, 57-97-6, 5 UMOL IN 0.4 ML ACETONE 20 MIN PRIOR TO EACH PROMOTER DOSE (STUDY DURATION: 47 WK), Route [Inhibitor]: DERMAL, Species: MOUSE, Strain/Sex: CF-1/FEMALE, Target Tissue: Type of Lesion: SKIN: PAPILLOMA, Dose [Carcinogen]: 100 NMOL IN 0.2 ML ACETONE ONCE): 94%, 54%, 43%, not calculated
- tumour outcome (control, treated, inhibition, significance) (Carcinogen: 7,12-DIMETHYLBENZ[A]ANTHRACENE, 57-97-6, 100 PPM IN DIET FOR 19 WK BEGINNING POST CARCINOGEN TREATMENT (STUDY DURATION: 42 WK), Route [Inhibitor]: ORAL, Species: FISH, Strain/Sex: RAINBOW TROUT/ MALE, FEMALE, Target Tissue: Type of Lesion: STOMACH: TUMOR, Dose [Carcinogen]: 4.16 PPM IN WATER FOR 1 HR, Promoter: NONE USED): 97%, 65%, 33%, p<0.001
- tumour outcome (control, treated, inhibition, significance) (Carcinogen: 7,12-DIMETHYLBENZ[A]ANTHRACENE, 57-97-6, 100 PPM IN DIET FOR 19 WK BEGINNING POST CARCINOGEN TREATMENT (STUDY DURATION: 42 WK), Route [Inhibitor]: ORAL, Species: FISH, Strain/Sex: RAINBOW TROUT/ MALE, FEMALE, Target Tissue: Type of Lesion: SWIM BLADDER: TUMOR, Dose [Carcinogen]: 4.16 PPM IN WATER FOR 1 HR, Promoter: NONE USED): 14%, 14%, 0%, not significant
- tumour outcome (control, treated, inhibition, significance) (Carcinogen: 7,12-DIMETHYLBENZ[A]ANTHRACENE, 57-97-6, 250 PPM IN DIET FOR 19 WK BEGINNING POST CARCINOGEN TREATMENT (STUDY DURATION: 42 WK), Route [Inhibitor]: ORAL, Species: FISH, Strain/Sex: RAINBOW TROUT/ MALE, FEMALE, Target Tissue: Type of Lesion: LIVER: TUMOR, Dose [Carcinogen]: 4.16 PPM IN WATER FOR 1HR, Promoter: NONE USED): 7%, 17%, -143%, p<0.001
- tumour outcome (control, treated, inhibition, significance) (Carcinogen: 7,12-DIMETHYLBENZ[A]ANTHRACENE, 57-97-6, 250 PPM IN DIET FOR 19 WK BEGINNING POST CARCINOGEN TREATMENT (STUDY DURATION: 42 WK), Route [Inhibitor]: ORAL, Species: FISH, Strain/Sex: RAINBOW TROUT/ MALE, FEMALE, Target Tissue: Type of Lesion: STOMACH: TUMOR, Promoter: NONE USED): 97%, 39%, 60%, p<0.001
- tumour outcome (control, treated, inhibition, significance) (Carcinogen: 7,12-DIMETHYLBENZ[A]ANTHRACENE, 57-97-6, 250 PPM IN DIET FOR 19 WK BEGINNING POST CARCINOGEN TREATMENT (STUDY DURATION: 42 WK), Route [Inhibitor]: ORAL, Species: FISH, Strain/Sex: RAINBOW TROUT/MALE, FEMALE, Target Tissue: Type of Lesion: SWIM BLADDER: TUMOR, Dose [Carcinogen]: 4.16 PPM IN WATER FOR 1HR, Promoter: NONE USED): 14%, 13%, 7%, not significant
- tumour outcome (control, treated, inhibition, significance) (Carcinogen: 7,12-DIMETHYLBENZ[A]ANTHRACENE, 57-97-6, 1000 PPM IN DIET FOR 17 WK BEGINNING POST CARCINOGEN TREATMENT (STUDY DURATION: 42 WK), Route [Inhibitor]: ORAL, Species: FISH, Strain/Sex: RAINBOW TROUT/ MALE, FEMALE, Target Tissue: Type of Lesion: STOMACH: TUMOR, Dose [Carcinogen]: 5.5 PPM IN WATER FOR 1 HR, Promoter: NONE USED): 88%, 26%, 70%, p<0.001
